Bridge positions count the residues as written; N and C are the ends. Square brackets hold non-standard residues; d marks the D form. Primed or numbered codes have the meaning given here. Ends that are not written are not given here. Peptide text beside a SMILES is read from it. * marks the point of attachment. X1 = O=C(O)CN1CCN(CC(=O)O)CCN([C@H](CCC(=O)*)C(=O)O)CCN(CC(=O)O)CC1; GdDOTAGA″ = gadolinium DOTAGA chelate, amide-bonded; Bip = N[C@@H](Cc1ccc(-c2ccccc2)cc1)C(=O)O
Tests used:
human type I collagen = target: T1, human type I collagen (Homo sapiens, UniProt P02452+P08123); assay: Collagen binding assay, dried human collagen in microtiter plate; settings: 37° C., pH 7.4
T1 construct: purchased Advanced Biomatrix 5007-A
Protocol: 10 ml of a solution of 3 mg/ml of human type I collagen (VitroCol solution, Advanced Biomatrix, cat#5007-A) is dialyzed against 10 mM Phosphate (NaH2PO4), pH 4.2 at 4° C. with three changes of the dialysis buffer. The protein concentration is determined by liquid chromatography determination of hydroxyproline (P. Hutson, J. Chromatogr. B, 791 (2003) 427-430).
(§1) Ice-cold 1×PBS pH 10.8 is added to the collagen solution for a final collagen concentration of 10 μM, pH 7.4. Collagen solutions are gelled and dried down in the wells of a 96 well microtiter plate (Corning Polystyrene Flat Bottom, cat#3641). […] The final well content of gelled collagen is measured by determination of hydroxyproline and is around 180 μg/ml.
(§2) a serial dilution of 0.2 μM-30 μM of the peptide chelate is prepared in PBS, pH 7.4 ([…], of solution for each concentration). […] The concentration of free, unbound compound in the sample supernatants and the concentration of compound in the reserved (total) sample are determined by ICP-MS (Agilent 7500, gadolinium concentration). The concentration of compound bound to collagen is determined as [bound]=[total]−[unbound].
(§3) The binding of compounds to human, rat and dog collagen (5 μM) was measured over the concentration range 0.2-5 μM of Comp ID Nos.: 1-4. […]

[1] = target: T2, Canine collagen (Native canine Collagen Type I and III protein) (Canis lupus familiaris, UniProt O46392+Q9XSJ7); assay: Collagen binding assay, dried canine collagen in microtiter plate; settings: 37° C., pH 7.4; read-out: Collagen Binding Dog (Kd)
T2 construct: purchased YO protein AB 739
Protocol: Canine collagen (Native canine Collagen Type I and III protein, YO protein AB, cat#739) is dissolved in 0.5 M acetic acid at 3.3 mg/ml by vortexing and shaking overnight at 4° C. The solution is then dialyzed against 10 mM Phosphate (NaH2PO4), pH 4.2 at 4° C. with three changes of the dialysis buffer.
as §1, with “cat#3641). 70 μl of 10 μM collagen is aliquoted into each well in every other lane in the plate (48 wells) and the plate is incubated at 37° C. for 18 hours to form a gel and evaporate to dryness.” for “cat#3641).”
as §2, §3

[2] = target: rat collagen (acid soluble, type I, rat tail, Millipore Inc, cat#08-115) (rat) (UniProt P02454); assay: dried collagen film in microtiter plate; unbound compound by ICP-MS (Gd); fit to 1 binding site

T2 sequence (Q9XSJ7 158-1214 limits assumed): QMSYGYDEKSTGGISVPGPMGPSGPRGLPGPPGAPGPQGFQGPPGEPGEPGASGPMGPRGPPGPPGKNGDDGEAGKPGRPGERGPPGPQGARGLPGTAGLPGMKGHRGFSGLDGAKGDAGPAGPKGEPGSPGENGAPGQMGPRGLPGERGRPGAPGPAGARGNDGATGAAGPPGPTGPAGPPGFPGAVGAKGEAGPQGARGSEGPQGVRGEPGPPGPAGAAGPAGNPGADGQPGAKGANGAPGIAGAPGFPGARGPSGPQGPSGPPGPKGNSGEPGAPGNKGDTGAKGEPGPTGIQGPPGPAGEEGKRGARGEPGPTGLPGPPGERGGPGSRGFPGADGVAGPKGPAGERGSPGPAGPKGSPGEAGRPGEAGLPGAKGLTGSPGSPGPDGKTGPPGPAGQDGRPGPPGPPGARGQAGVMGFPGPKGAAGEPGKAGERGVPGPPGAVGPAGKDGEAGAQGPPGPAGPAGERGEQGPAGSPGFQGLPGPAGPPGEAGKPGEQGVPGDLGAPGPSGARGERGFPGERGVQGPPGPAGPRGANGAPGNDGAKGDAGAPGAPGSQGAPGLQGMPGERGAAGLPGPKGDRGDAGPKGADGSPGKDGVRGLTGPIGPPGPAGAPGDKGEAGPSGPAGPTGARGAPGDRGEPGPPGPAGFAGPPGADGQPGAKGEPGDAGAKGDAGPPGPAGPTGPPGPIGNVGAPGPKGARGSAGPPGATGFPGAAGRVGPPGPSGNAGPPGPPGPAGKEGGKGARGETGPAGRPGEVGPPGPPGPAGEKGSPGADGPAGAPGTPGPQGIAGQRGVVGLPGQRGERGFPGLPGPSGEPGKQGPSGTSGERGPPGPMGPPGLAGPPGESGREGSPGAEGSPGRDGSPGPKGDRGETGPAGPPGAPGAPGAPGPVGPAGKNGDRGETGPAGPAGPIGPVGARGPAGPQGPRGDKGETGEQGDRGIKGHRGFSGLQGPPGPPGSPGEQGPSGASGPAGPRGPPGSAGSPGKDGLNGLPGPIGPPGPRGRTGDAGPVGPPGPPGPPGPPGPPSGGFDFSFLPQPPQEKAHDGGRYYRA
T2 sequence (O46392 80-1119 limits assumed): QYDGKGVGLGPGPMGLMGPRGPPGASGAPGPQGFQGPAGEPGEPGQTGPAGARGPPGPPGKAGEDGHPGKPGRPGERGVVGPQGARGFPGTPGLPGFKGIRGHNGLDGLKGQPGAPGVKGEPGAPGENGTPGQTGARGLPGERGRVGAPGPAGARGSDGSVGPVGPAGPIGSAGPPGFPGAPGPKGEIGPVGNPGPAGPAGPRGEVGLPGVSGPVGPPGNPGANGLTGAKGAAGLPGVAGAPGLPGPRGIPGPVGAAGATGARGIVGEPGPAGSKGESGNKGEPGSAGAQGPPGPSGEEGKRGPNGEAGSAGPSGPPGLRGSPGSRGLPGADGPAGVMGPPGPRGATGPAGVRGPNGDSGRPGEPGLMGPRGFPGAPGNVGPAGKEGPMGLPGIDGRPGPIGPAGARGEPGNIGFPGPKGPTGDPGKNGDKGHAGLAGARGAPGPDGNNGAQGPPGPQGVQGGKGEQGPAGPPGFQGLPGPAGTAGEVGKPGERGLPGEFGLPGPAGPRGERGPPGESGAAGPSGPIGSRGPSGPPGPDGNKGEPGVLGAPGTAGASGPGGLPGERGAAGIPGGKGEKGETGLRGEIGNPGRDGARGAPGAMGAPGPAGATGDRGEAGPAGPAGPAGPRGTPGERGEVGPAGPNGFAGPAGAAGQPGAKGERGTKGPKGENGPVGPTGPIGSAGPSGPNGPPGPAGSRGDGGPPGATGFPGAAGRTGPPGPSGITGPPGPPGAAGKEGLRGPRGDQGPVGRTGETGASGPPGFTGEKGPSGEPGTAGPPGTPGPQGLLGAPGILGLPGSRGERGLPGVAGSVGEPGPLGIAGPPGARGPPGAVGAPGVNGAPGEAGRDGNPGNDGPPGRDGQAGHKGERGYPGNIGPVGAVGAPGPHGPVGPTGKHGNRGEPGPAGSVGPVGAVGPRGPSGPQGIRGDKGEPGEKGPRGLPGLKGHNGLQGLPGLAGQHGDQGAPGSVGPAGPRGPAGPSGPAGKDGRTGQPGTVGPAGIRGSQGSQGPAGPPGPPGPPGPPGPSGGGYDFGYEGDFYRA
T1 sequence (P02452 162-1218 limits assumed): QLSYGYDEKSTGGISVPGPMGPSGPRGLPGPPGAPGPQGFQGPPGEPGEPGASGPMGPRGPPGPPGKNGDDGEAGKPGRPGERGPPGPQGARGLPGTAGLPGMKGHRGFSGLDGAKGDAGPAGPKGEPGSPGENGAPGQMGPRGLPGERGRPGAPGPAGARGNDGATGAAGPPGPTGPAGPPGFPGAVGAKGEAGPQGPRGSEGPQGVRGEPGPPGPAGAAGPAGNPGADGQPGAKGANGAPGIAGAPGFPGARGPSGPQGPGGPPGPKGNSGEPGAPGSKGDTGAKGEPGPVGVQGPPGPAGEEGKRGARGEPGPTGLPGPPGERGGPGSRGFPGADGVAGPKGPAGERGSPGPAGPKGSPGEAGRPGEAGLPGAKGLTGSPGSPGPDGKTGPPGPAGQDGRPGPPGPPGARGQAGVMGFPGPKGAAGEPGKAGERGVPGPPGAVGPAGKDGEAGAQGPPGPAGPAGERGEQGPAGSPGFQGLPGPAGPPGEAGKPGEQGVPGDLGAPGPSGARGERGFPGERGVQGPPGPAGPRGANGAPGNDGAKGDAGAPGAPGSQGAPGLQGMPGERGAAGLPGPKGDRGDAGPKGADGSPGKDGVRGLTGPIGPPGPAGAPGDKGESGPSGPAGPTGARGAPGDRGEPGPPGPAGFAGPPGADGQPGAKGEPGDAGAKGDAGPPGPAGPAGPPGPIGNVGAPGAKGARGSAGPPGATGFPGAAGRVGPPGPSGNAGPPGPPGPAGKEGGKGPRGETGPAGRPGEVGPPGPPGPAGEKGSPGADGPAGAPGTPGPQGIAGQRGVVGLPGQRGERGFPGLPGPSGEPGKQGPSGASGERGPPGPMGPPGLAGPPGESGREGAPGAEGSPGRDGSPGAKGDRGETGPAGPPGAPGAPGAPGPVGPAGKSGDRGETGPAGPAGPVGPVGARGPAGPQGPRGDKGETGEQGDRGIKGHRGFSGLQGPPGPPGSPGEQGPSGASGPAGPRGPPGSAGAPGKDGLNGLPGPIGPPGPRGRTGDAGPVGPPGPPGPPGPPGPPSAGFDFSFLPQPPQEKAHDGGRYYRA
T1 sequence (P08123 80-1119 limits assumed): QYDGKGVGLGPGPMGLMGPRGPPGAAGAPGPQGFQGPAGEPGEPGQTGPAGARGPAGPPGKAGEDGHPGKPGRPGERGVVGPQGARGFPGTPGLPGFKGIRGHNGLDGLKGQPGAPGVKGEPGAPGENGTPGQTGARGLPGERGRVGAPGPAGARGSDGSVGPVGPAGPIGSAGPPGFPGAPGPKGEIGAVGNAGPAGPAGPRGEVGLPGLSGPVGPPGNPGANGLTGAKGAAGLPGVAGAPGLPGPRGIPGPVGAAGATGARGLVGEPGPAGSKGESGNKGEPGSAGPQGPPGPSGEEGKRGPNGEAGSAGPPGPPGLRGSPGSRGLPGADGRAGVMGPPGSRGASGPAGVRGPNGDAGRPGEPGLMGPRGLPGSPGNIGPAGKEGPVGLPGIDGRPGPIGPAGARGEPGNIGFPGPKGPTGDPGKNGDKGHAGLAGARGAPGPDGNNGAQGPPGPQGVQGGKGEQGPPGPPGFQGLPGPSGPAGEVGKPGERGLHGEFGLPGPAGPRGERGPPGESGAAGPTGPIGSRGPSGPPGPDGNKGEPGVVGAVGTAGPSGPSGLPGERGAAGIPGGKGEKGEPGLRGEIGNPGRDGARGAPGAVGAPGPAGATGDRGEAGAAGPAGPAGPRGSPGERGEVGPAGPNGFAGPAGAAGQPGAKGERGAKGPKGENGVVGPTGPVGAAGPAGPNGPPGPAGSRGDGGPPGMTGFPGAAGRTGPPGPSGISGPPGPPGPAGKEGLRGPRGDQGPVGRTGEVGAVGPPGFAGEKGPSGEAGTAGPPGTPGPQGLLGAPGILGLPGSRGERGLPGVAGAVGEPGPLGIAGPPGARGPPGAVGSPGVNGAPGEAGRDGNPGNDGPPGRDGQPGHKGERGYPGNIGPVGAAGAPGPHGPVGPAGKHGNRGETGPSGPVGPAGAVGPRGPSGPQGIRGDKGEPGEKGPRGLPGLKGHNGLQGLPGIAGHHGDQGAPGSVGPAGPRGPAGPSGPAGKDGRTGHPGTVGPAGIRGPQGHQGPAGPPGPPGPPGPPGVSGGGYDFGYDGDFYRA

| Kd [2] [µM] | Molecule | other results |
| --- | --- | --- |
|  | CC(C)C[C@H](NC(=O)[C@@H]1CSSC[C@H](NC(=O)[C@H](Cc2c[nH]cn2)NC(=O)[C@H](Cc2c[nH]c3ccccc23)NC(=O)[C@H](Cc2ccc(O)cc2)NC(=O)[C@H](CCCCNC(=O)CC[C@H](C(=O)O)N2CCN(CC(=O)O)CCN(CC(=O)O)CCN(CC(=O)O)CC2)NC(=O)CC[C@H](C(=O)O)N2CCN(CC(=O)O)CCN(CC(=O)O)CCN(CC(=O)O)CC2)C(=O)N[C@@H]([C@@H](C)O)C(=O)N[C@@H]([C@@H](C)O)C(=O)N[C@@H](CCCCNC(=O)CC[C@H](C(=O)O)N2CCN(CC(=O)O)CCN(CC(=O)O)CCN(CC(=O)O)CC2)C(=O)N[C@@H](Cc2ccccc2)C(=O)N2CCC[C@H]2C(=O)N[C@@H](Cc2c[nH]cn2)C(=O)N[C@@H](Cc2c[nH]cn2)C(=O)N[C@@H](Cc2ccc(O)cc2)C(=O)N1)C(=O)N[C@@H](Cc1ccc(O)cc1)C(=O)N[C@@H](Cc1ccc(-c2ccccc2)cc1)C(N)=O [Compound ID No. 3] (X1-K(X1)YWHCTTK(X1)FPHHYCLY[Bip]-NH2; disulfide 5-14) | Kd (human type I collagen): 29.8 µM |
|  | CC(C)[C@H](NC(=O)[C@@H]1CSSC[C@H](NC(=O)[C@H](Cc2c[nH]cn2)NC(=O)[C@H](Cc2c[nH]c3ccccc23)NC(=O)[C@H](CCCCNC(=O)CC[C@H](C(=O)O)N2CCN(CC(=O)O)CCN(CC(=O)O)CCN(CC(=O)O)CC2)NC(=O)CC[C@H](C(=O)O)N2CCN(CC(=O)O)CCN(CC(=O)O)CCN(CC(=O)O)CC2)C(=O)N[C@@H](Cc2ccc(O)cc2)C(=O)N[C@@H]([C@@H](C)O)C(=O)N[C@@H](CCCCNC(=O)CC[C@H](C(=O)O)N2CCN(CC(=O)O)CCN(CC(=O)O)CCN(CC(=O)O)CC2)C(=O)N[C@@H](Cc2ccccc2)C(=O)N2CCC[C@H]2C(=O)N[C@@H](Cc2c[nH]cn2)C(=O)N[C@@H](Cc2c[nH]cn2)C(=O)N[C@@H](Cc2ccc(O)cc2)C(=O)N1)C(=O)N[C@@H](Cc1ccc(O)cc1)C(=O)N[C@@H](Cc1ccc(-c2ccccc2)cc1)C(N)=O [Compound ID No. 4] (X1-K(X1)WHCYTK(X1)FPHHYCVY[Bip]-NH2; disulfide 4-13) | Kd [1]: 2 µM |
| 4.6 | KWHCYTKFPHHYCVY[Bip]-NH2 (disulfide 4-13; also: GdDOTAGA on N-terminal nitrogen or Lys epsilon amines, sites not fixed) [Compound ID No. 4] |  |
| 20.6 | {GdDOTAGA″}-K(GdDOTAGA″)WHCTTK(GdDOTAGA″)FPHHYCLY[Bip]-NH2 (disulfide 4-13) [Compound ID No. 2] |  |

From US20180185520A1, “COLLAGEN IMAGING COMPOSTIONS” (Collagen Medical, LLC, priority 2015, published 2018)
